Measured values: ChEMBL document CHEMBL1159385, “Euphane and tirucallane triterpenes from the roots of Euphorbia kansui and their in vitro effects on the cell division of Xenopus” (2003)

How the values were obtained:
Xenopus laevis [1] = species on record: Xenopus laevis; test: Induction of cell cleavage arrest in Xenopus laevis blastular stage cells at 10 ug/mL; assay type: functional, Blastula stage
Xenopus laevis [2] = species on record: Xenopus laevis; test: Growth inhibition of Xenopus laevis blastular stage cells at 10 ug/mL; assay type: functional; conditions: Blastula stage, read-out: GI

SMILES	Activity (Xenopus laevis [1])	inhibition of growth at 10 µg/mL (Xenopus laevis [2])
CC(C)=CCC[C@H](C)[C@@H]1CC[C@]2(C)C3=C(CC[C@@]12C)[C@@]1(C)CC[C@H](O)C(C)(C)[C@@H]1CC3=O	>50%	
O=c1[nH]cc(F)c(=O)[nH]1 [FLUOROURACIL]		47%
CC(C)=CCC[C@@H](C)[C@@H]1CC[C@]2(C)C3=C(CC[C@@]12C)[C@@]1(C)CC[C@H](O)C(C)(C)[C@@H]1CC3=O [KANSENONE]	>50%	
